Data from ChEMBL document CHEMBL1143512, “Antitubercular agents. Part 2: new thiolactomycin analogues active against Mycobacterium tuberculosis” (2005).
In brackets after ≈: the same amount, converted by molar mass.

Assays:
Assay type in all cases: functional
Mycobacterium avium = experiment: Minimum inhibitory concentration against Mycobacterium avium ATCC 49601
[1] = test system: Mycobacterium tuberculosis; experiment: Minimum inhibitory concentration against Mycobacterium tuberculosis sensitive clinical isolates
[2] = test system: Mycobacterium tuberculosis; experiment: Minimum inhibitory concentration against Mycobacterium tuberculosis H37Rv ATCC 27294
[3] = test system: Mycobacterium intracellulare; experiment: Minimum inhibitory concentration against Mycobacterium intracellular ATCC 13950
[4] = test system: Mycobacterium tuberculosis; experiment: Minimum inhibitory concentration against Mycobacterium tuberculosis sensitive clinical isolates; Range: 1-4 ug/ml
[5] = test system: Mycobacterium tuberculosis; experiment: Minimum inhibitory concentration against Mycobacterium tuberculosis sensitive clinical isolates; Range:4-16 ug/ml
[6] = test system: Mycobacterium tuberculosis; experiment: Minimum inhibitory concentration against Mycobacterium tuberculosis sensitive clinical isolates; Range: 0.125-0.25 ug/ml

SMILES | MIC (Mycobacterium avium) [µg/mL] | MIC [1] [µg/mL] | MIC [2] [µg/mL] | MIC [3] [µg/mL] | MIC [4] [µg/mL] | MIC [5] [µg/mL] | MIC [6] [µg/mL]
CC1=C(OCCCCN2CCOCC2)C(C)SC1=O (stereo not given) | > 16 | > 16 | > 16 | > 16 |  |  | 
CC1=C(OCCCCCN2CCOCC2)C(C)SC1=O (stereo not given) | > 16 | > 16 | > 16 | > 16 |  |  | 
COC(=O)CSCCCOC1=C(C)C(=O)SC1C (stereo not given) | > 16 | > 16 | > 16 | > 16 |  |  | 
COC(=O)CSCCCCCOC1=C(C)C(=O)SC1C (stereo not given) | > 16 | > 16 | > 16 | > 16 |  |  | 
CC1=C(OCCCCCCCCBr)C(C)SC1=O (stereo not given) | > 16 | > 16 | > 16 | > 16 |  |  | 
CC1=C(OCCCCCCBr)C(C)SC1=O (stereo not given) | > 16 | > 16 | > 16 | > 16 |  |  | 
CC1=C(OCCCCCCCCN2CCOCC2)C(C)SC1=O (stereo not given) | > 16 | > 16 | > 16 | > 16 |  |  | 
CC1=C(OCCCCCCCCCCN2CCN(C)CC2)C(C)SC1=O (stereo not given) | > 16 | > 16 | > 16 | > 16 |  |  | 
CC1=C(OCCCCN2CCN(C)CC2)C(C)SC1=O (stereo not given) | > 16 | > 16 | > 16 | > 16 |  |  | 
CC1=C(OCCCBr)C(C)SC1=O (stereo not given) | > 16 | > 16 | > 16 | > 16 |  |  | 
COC(=O)CSCCCCCCCCOC1=C(C)C(=O)SC1C (stereo not given) | 8 (≈ 22.2 µM) |  | 1 (≈ 2.77 µM) | 4 (≈ 11.1 µM) | 4 (≈ 11.1 µM) |  | 
CC1=C(OCCCN2CCN(C)CC2)C(C)SC1=O (stereo not given) | > 16 | > 16 | > 16 | > 16 |  |  | 
CC1=C(OCCCCCBr)C(C)SC1=O (stereo not given) | > 16 | > 16 | > 16 | > 16 |  |  | 
COC(=O)CSCCCCOC1=C(C)C(=O)SC1C (stereo not given) | > 16 | > 16 | > 16 | > 16 |  |  | 
COC(=O)CSCCCCCCOC1=C(C)C(=O)SC1C (stereo not given) | > 16 | > 16 | > 16 | > 16 |  |  | 
CC1=C(OCCCCCN2CCN(C)CC2)C(C)SC1=O (stereo not given) | > 16 | > 16 | > 16 | > 16 |  |  | 
CC1=C(OCCCCBr)C(C)SC1=O (stereo not given) | > 16 | > 16 | > 16 | > 16 |  |  | 
CC1=C(OCCCCCCCCN2CCN(C)CC2)C(C)SC1=O (stereo not given) | > 16 | > 16 | > 16 | > 16 |  |  | 
CC1=C(OCCCCCCCCCCBr)C(C)SC1=O (stereo not given) | > 16 |  | 4 (≈ 11 µM) | > 16 |  | 16 (≈ 44 µM) | 
CC1=C(OCCCCCCN2CCN(C)CC2)C(C)SC1=O (stereo not given) | > 16 | > 16 | > 16 | > 16 |  |  | 
CC1=C(OCCCCCCN2CCOCC2)C(C)SC1=O (stereo not given) | > 16 | > 16 | > 16 | > 16 |  |  | 
CC1=C(OCCCCCCCCCCN2CCOCC2)C(C)SC1=O (stereo not given) | > 16 | > 16 | > 16 | > 16 |  |  | 
COC(=O)CSCCCCCCCCCCOC1=C(C)C(=O)SC1C (stereo not given) | > 16 | > 16 | > 16 | > 16 |  |  | 
CC1=C(OCCCN2CCOCC2)C(C)SC1=O (stereo not given) | > 16 | > 16 | > 16 | > 16 |  |  | 
NNC(=O)c1ccncc1 [ISONIAZID] | > 16 |  | 0.25 (≈ 1.82 µM) | 8 (≈ 58.3 µM) |  |  | 0.25 (≈ 1.82 µM)
